Source: patent publication US20190053492A1, “SUBSTITUTED PYRIDINE COMPOUNDS AS PESTICIDES” (Bayer CropScience Aktiengesellschaft, priority 2016, published 2019)
Like-named read-outs stand apart in the source and are kept apart here.

Tests used:
[1] = test system: Myzus persicae; test: Myzus persicae spray test; format: in vivo; conditions: application rate 500 g/ha, after 6 days, Chinese cabbage leaf discs
Protocol: Myzus persicae—Spray Test
Solvent: 78 parts by weight of acetone • • 1.5 parts by weight of dimethylformamide
(§1) Emulsifier: alkylaryl polyglycol ether
(§2) To produce a suitable active ingredient formulation, 1 part by weight of active ingredient is dissolved with the specified parts by weight of solvent and made up with water containing an emulsifier concentration of 1000 ppm until the desired concentration is attained. To produce further test concentrations, the formulation is diluted with emulsifier-containing water.
Discs of Chinese cabbage leaves (Brassica pekinensis) infested by all stages of the green peach aphid (Myzus persicae) are sprayed with an active ingredient formulation of the desired concentration.
After 6 days, the efficacy in % is determined. 100% means that all the aphids have been killed; 0% means that no aphids have been killed.

[2] = test system: Meloidogyne incognita; test: Meloidogyne incognita test; format: in vivo; conditions: application rate 20 ppm, after 14 days, lettuce
Protocol: Meloidogyne incognita Test Solvent: 125.0 parts by weight of acetone To produce a suitable active ingredient formulation, 1 part by weight of active ingredient is mixed with the stated amount of solvent and the concentrate is diluted with water to the desired concentration. Vessels are filled with sand, active ingredient solution, an egg/larvae suspension of the southern root-knot nematode (Meloidogyne incognita) and lettuce seeds. The lettuce seeds germinate and the plants develop. The galls develop on the roots. After 14 days, the nematicidal efficacy in % is determined by the formation of galls. 100% means that no galls were found; 0% means that the number of galls on the treated plants corresponds to the untreated control.

[3] = test system: Spodoptera frugiperda; test: Spodoptera frugiperda spray test; format: in vivo; conditions: after 7 days, maize leaf discs
In short: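 Maize leaf discs were sprayed with compound formulated in acetone/DMF and emulsifier-containing water, dried, then infested with Spodoptera frugiperda caterpillars. Percent kill was scored after 7 days, from 100% (all dead) to 0% (none dead).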

[4] = test system: Ctenocephalides felis; test: Ctenocephalides felis oral test; format: in vivo; conditions: application rate 100 ppm in citrated cattle blood, after 2 days, adult cat fleas
In short: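 About 20 unfed adult cat fleas fed through a parafilm membrane on citrated cattle blood dosed with compound from a DMSO formulation. Percent kill was scored after 2 days.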

[5] = test system: Phaedon cochleariae; test: Phaedon cochleariae spray test; format: in vivo; conditions: after 7 days, Chinese cabbage leaf discs
In short: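 Chinese cabbage leaf discs sprayed with compound in acetone/DMF and emulsifier-containing water, then infested with mustard beetle larvae once dry. Efficacy in % scored after 7 days (100% = all larvae killed, 0% = none).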

[6] = log P by HPLC on reversed-phase column (C 18), EEC Directive 79/831 Annex V.A8; format: physicochemical; conditions: 55° C.; for LOGP_HCOOH: log P (HCOOH); for LOGP_NEUTRAL: log P, neutral range; for chromatographic logP: reversed-phase HPLC column (C 18)
Protocol: Temperature: 55° C. […] Called log P (HCOOH) in the table. […] Called log P (neutral) in the table.

[7] = test system: Lucilia cuprina; test: Lucilia cuprina test; format: in vivo; conditions: application rate 100 ppm, after 2 days, L1 larvae
In short: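 Active ingredient dissolved in DMSO and diluted with water to the test concentration. About 20 first-instar sheep blowfly larvae placed on minced horsemeat containing the formulation; percentage of larvae killed scored after 2 days.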

[8] = test system: Tetranychus urticae; test: Tetranychus urticae spray test, OP-resistant; format: in vivo; conditions: application rate 500 g/ha, after 6 days, bean leaf discs
Protocol: Tetranychus urticae—Spray Test, OP-Resistant
Solvent: 78.0 parts by weight of acetone • • 1.5 parts by weight of dimethylformamide
as §1, §2
Discs of bean leaves (Phaseolus vulgaris) infested with all stages of the greenhouse red spider mite (Tetranychus urticae) are sprayed with an active ingredient formulation of the desired concentration.
After 6 days, the efficacy in % is determined. 100% means that all the spider mites have been killed; 0% means that no spider mites have been killed.

[9] = test system: Boophilus microplus; test: Boophilus microplus injection test; format: in vivo; conditions: application rate 20 μg/animal, assessed after 7 days, engorged adult female cattle ticks
Protocol: Boophilus microplus—Injection Test
Solvent: dimethyl sulphoxide
To produce a suitable active ingredient formulation, 10 mg of active ingredient are mixed with 0.5 ml of solvent and the concentrate is diluted to the desired concentration with solvent.
1 μl of the active ingredient solution is injected into the abdomen of 5 engorged adult female cattle ticks (Boophilus microplus). The animals are transferred into dishes and kept in a climate-controlled room.
Efficacy is assessed after 7 days by laying of fertile eggs. Eggs which are not visibly fertile are stored in a climate-controlled cabinet until the larvae hatch after about 42 days. An efficacy of 100% means that none of the ticks has laid any fertile eggs; 0% means that all the eggs are fertile.

[10] = test system: Ctenocephalides felis; test: Ctenocephalides felis in vitro contact test with adult cat fleas; format: in vivo; conditions: application rate 5 μg/cm^2 (500 g/ha), after 48 h
Protocol: Ctenocephalides felis—In Vitro Contact Tests with Adult Cat Fleas
For the coating of the test tubes, 9 mg of active ingredient are first dissolved in 1 ml of acetone p.a. and then diluted to the desired concentration with acetone p.a. 250 μl of the solution are distributed homogeneously on the inner walls and the base of a 25 ml glass tube by turning and rocking on an orbital shaker (rocking rotation at 30 rpm for 2 h). With 900 ppm of active ingredient solution and internal surface area 44.7 cm^2, given homogeneous distribution, an area-based dose of 5 μg/cm^2 is achieved.
After the solvent has evaporated off, the tubes are populated with 5-10 adult cat fleas (Ctenocephalides felis), sealed with a perforated plastic lid and incubated in a horizontal position at room temperature and ambient humidity. After 48 h, efficacy is determined. To this end, the tubes are stood upright and the fleas are knocked to the base of the tube. Fleas which remain motionless at the base or move in an uncoordinated manner are considered to be dead or moribund.
100% efficacy means that all the fleas were dead or moribund. 0% efficacy means that no fleas were harmed.

[11] = test system: Musca domestica; test: Musca domestica test; format: in vivo; conditions: application rate 100 ppm, after 2 days, adult houseflies
In short: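 Active ingredient was dissolved in DMSO and diluted with water to the desired concentration, then applied to a sponge with sugar solution. Ten adult houseflies were exposed per vessel. Percent kill was scored after 2 days.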

[12] = acidic range pH 2.7, 0.1% aqueous formic acid and acetonitrile, reversed-phase column (C 18)
[13] = HPLC on reversed-phase column (C 18)
[14] = acidic range at pH 2.7, 0.1% aqueous formic acid and acetonitrile, HPLC on reversed-phase column (C 18)

Row | Compound | efficacy (aphids killed) [1] [%] | nematicidal efficacy (formation of galls) [2] [%] | LOGP_HCOOH [6, 12] | LOGP_NEUTRAL [6, 13] | efficacy (kill in %) [7] [%] | efficacy (kill in %) [4] [%] | efficacy (no laying of fertile eggs) [9] [%] | efficacy (caterpillars killed) ([3]; application rate 100 g/ha) [%] | efficacy (caterpillars killed) ([3]; application rate 500 g/ha) [%] | efficacy (beetle larvae killed) ([5]; application rate 100 g/ha) [%] | efficacy (beetle larvae killed) ([5]; application rate 500 g/ha) [%] | efficacy (kill in %) [11] [%] | LOGP_HCOOH [6, 14] | also measured
1 | N#Cc1ccc(CNC(=O)c2cc(-c3ccc(C(F)(F)F)cc3)cc(N(C(=O)C3CC3)C(=O)C3CC3)n2)cc1F [Example I-028, 6-[Bis(cyclopropylcarbonyl)amino]-N-(4-cyano-3-fluorobenzyl)-4-[4-(trifluoromethyl)phenyl]pyridine-2-carboxamide] | 90 | 90 | 4.27 | 4.18 | – | – | – | – | – | – | – | – | – | pest or weed control at 100 g/ha ([3]; Spodoptera frugiperda, foliar, 168 h, application rate 100 g/ha, read-out: efficacy (caterpillars killed)): 83%; pest or weed control at 500 g/ha ([3]; Spodoptera frugiperda, foliar, 168 h, application rate 500 g/ha, read-out: efficacy (caterpillars killed)): 100%; pest or weed control at 100 ppm ([4]; Ctenocephalides felis, po, 48 h, read-out: efficacy (kill in %)): 100%; pest or weed control at 500 g/ha ([5]; Phaedon cochleariae, foliar, 168 h, application rate 500 g/ha, read-out: efficacy (beetle larvae killed)): 100%; chromatographic logP ([6]; pH 2.7, LC-MS acidic range, pH 2.7, 0.1% formic acid/acetonitrile, read-out: log P (acidic) / log P (HCOOH)): 4.27; chromatographic logP ([6]; pH 7.8, LC-MS neutral range, pH 7.8, ammonium hydrogencarbonate/acetonitrile, read-out: log P (neutral)): 4.18
2 | CC(C)C(=O)Nc1cc(-c2ccc(OC(F)(F)F)cc2)cc(C(=O)NCc2ccc(-c3cnco3)cc2)n1 [Example I-104] | – | 90 | 3.99 | 3.87 | 100 | 80 | 95 | – | – | – | – | – | – | efficacy (spider mites killed) [8]: 90%
3 | COC(=O)C1(NC(=O)c2cc(-c3ccc(OC(F)(F)F)cc3)cc(NC(=O)C3CC3)n2)CC1 [Example I-138] | – | 90 | – | – | 100 | 100 | – | 100 | 100 | 100 | 100 | 100 | 3.42 | efficacy (fleas dead or moribund) [10]: 100%
4 | N#Cc1ccc(CNC(=O)c2cc(-c3ccc([S+]([O-])C(F)(F)F)cc3)cc(NC(=O)C3CC3)n2)cc1 (stereo not shown) [Example I-151] | – | – | – | 3.50 | 100 | 100 | 80 | 100 | 100 | 100 | 100 | 100 | 3.09 | –
5 | COC(=O)C1(NC(=O)c2cc(-c3ccc(OC(F)(F)F)cc3)cc(NC(=O)C3CC3)n2)COC1 [Example I-175] | 90 | – | – | 3.17 | – | – | – | – | – | – | – | – | 3.25 | –
